# Test results from patent publication US20060120972A1, “9-(N-methyl-piperidyliden-4)-thioxanthene for treatment of pulmonary hypertension” (priority 2004, published 2006).
# Entries after “also recorded” stand apart in the source; their conditions may differ.
# Key:
# [1] = tested on: plasma protein extravasation at the blood vessels within the Dura mater after mCPP application; experiment: mCPP model in guinea pigs: plasma protein extravasation (EvansBlue); type: in vivo; details: for Plasma protein extravasation as EvansBlue extinction at 600 nm: 2 min before 1 μg/kg mCPP, guinea pig dura mater
# Protocol: In accordance to the protocol published by Markowitz et. al; (1987) and Olesen et. al; (2000), guinea pigs were used to determine the amount of plasma protein released at the blood vessels within the Dura mater after mCPP application.
# 2 minutes later 1 μg/kg body weight mCPP were injected and followed by the i.v. application of EvansBlue as marker for the protein plasma extravasation. 15 minutes later animals were transcranial perfused and decapitated. A defined area of the dura mater was isolated and transferred into an eppendorf tube containing 200 μl formamid. Because EvansBlue binds to plasma protein, the amount of bound marker dye is a measure of extravasation of plasma protein. Formamid dissolves EvansBlue from the protein which can be calorimetric detected and quantified at 600 nm.
# [2] = target: T1, human 5-HT2B receptor (Homo sapiens, UniProt P41595); experiment: Cloned human 5-HT2B receptor binding assay; details: 5-HT2B versus 5HT2C; listed as compound of the preferred embodiments
# T1 construct: expressed in transfected cells; host or cells: HEK 293 (transient)
# T1 sequence (P41595 whole entry): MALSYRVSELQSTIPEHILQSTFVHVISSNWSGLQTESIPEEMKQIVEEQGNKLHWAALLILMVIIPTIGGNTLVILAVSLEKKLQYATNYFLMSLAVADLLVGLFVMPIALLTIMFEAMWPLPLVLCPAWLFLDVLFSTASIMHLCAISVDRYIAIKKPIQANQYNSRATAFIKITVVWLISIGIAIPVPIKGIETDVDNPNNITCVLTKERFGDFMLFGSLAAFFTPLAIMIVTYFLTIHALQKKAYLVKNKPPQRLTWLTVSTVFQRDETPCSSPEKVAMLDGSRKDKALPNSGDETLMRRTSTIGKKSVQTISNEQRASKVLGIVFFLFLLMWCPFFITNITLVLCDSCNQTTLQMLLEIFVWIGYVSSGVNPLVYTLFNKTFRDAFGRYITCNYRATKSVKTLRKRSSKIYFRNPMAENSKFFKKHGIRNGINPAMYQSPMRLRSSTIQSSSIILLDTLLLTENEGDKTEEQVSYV
# [3] = target: T2, human Histamine H1 receptor (Homo sapiens, UniProt P35367); experiment: Cloned human H1 receptor binding assay
# T2 construct: expressed in transfected cells
# T2 sequence (P35367 whole entry): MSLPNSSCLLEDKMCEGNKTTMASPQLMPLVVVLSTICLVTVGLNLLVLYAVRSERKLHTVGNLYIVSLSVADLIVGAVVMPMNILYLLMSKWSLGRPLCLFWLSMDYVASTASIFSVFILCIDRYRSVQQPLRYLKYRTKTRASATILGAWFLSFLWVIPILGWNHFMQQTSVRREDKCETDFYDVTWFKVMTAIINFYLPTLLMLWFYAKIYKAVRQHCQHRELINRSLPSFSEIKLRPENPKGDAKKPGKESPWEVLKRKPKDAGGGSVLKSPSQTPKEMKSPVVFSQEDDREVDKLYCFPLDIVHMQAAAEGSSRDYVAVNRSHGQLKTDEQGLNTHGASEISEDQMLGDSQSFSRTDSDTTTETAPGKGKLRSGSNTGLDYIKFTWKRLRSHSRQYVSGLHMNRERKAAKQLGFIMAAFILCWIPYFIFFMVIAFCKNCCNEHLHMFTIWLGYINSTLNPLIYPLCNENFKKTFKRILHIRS
# Protocol: (§1) CHO cells were stably transfected with an expression plasmid pCineohH1, pCineohH2, pCineohH3 and pCineohH4 encoding the human Histamine H1, H2, H3 or H4 receptor, respectively. Recombinant cell lines were harvested after confluent growth, homogenized in ice-cold 50 mM Na2/potassium phosphate buffer (pH 7.4) and used for radioligand binding studies. Cell homogenates (40-50 μg of protein) were incubated for 30 min at 25° C. in 50 mM Na2/potassium phosphate buffer (pH 7.4) in 400 μl with the various concentrations of either [^3H]-mepyramine, [^3H]-thiotidine, [^3H]-R-a-Methylhistamine, and [^3H]-pyramilamine for cells expressing recombinant human H1, H2, H3 and H4 receptors, respectively. The nonspecific binding was defined in the presence of 1 μM mianserin. […] The incubations were stopped by rapid dilution with 3 ml of ice-cold 50 mM Na2/potassium phosphate buffer (pH 7.4). […] Filters were washed twice in 3 ml of buffer and radioactivity retained on the filters was measured by liquid scintillation counting.
# (§2) EC80 values were calculated from corresponding dose-response experiment using 5-HT, histamine, epinephrine (alpha 1A adrenergic receptor), dopamine (D2 dopaminergic receptor), and acetylcholine (M1 muscarinic receptor) as agonists.
# [4] = target: T3, human Histamine H2 receptor (Homo sapiens, UniProt P25021); experiment: Cloned human H2 receptor binding assay
# T3 construct: expressed in transfected cells
# T3 sequence (P25021 whole entry): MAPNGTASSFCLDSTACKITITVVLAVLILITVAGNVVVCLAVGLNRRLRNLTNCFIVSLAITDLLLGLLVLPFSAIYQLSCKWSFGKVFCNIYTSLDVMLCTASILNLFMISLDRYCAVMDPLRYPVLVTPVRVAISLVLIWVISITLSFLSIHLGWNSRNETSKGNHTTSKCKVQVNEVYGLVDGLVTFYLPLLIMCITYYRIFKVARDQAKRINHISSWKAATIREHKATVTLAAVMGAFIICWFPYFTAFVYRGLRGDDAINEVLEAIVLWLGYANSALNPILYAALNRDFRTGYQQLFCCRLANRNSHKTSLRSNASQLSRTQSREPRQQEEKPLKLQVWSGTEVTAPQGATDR
# Protocol: as §1, §2
# [5] = target: T4, human Histamine H3 receptor (Homo sapiens, UniProt Q9Y5N1); experiment: Cloned human H3 receptor binding assay
# T4 construct: expressed in transfected cells
# T4 sequence (Q9Y5N1 whole entry): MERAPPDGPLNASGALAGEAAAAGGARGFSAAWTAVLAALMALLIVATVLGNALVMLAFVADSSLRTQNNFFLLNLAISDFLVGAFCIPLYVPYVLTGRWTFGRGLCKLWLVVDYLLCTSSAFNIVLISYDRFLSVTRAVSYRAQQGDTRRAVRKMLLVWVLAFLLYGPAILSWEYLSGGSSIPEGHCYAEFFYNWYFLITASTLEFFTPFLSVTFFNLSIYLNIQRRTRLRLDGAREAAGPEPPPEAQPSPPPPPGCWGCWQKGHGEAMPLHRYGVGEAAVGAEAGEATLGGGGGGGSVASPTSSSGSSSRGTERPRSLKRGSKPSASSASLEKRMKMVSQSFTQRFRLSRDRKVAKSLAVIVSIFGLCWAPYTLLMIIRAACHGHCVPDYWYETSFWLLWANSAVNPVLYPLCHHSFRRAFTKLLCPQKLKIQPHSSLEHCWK
# Protocol: as §1, §2
# [6] = target: T5, human Histamine H4 receptor (Homo sapiens, UniProt Q9H3N8); experiment: Cloned human H4 receptor binding assay
# T5 construct: expressed in transfected cells
# T5 sequence (Q9H3N8 whole entry): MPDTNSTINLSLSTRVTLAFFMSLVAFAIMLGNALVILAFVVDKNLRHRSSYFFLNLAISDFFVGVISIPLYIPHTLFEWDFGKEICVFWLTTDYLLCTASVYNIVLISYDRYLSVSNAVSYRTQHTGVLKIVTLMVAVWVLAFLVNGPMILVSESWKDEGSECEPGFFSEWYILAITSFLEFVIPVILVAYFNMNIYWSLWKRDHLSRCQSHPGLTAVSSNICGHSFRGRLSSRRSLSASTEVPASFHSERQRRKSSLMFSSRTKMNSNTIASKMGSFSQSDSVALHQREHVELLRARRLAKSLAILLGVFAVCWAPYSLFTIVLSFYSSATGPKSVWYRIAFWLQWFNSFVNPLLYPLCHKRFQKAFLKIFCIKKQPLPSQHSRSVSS
# Protocol: as §1, §2
compound,measurement,setting,value
CC[C@@H](CO)NC(=O)[C@@H]1C=C2c3cccc4c3c(cn4C)C[C@H]2N(C)C1 [Methysergide],Plasma protein extravasation as EvansBlue extinction at 600 nm,[1]; dose 0.1 μg/kg i.v.,0.265 ± 0.034
same,Plasma protein extravasation as EvansBlue extinction at 600 nm,[1]; dose 1 μg/kg i.v.,0.250 ± 0.027
same,Plasma protein extravasation as EvansBlue extinction at 600 nm,[1]; dose 10 μg/kg i.v.,0.228 ± 0.064
same,Plasma protein extravasation as EvansBlue extinction at 600 nm,[1]; dose 100 μg/kg i.v.,0.189 ± 0.026
CN1CCC(=C2c3ccccc3CCc3sccc32)CC1 [Pizotifen],Plasma protein extravasation as EvansBlue extinction at 600 nm,[1]; dose 1 μg/kg i.v.,0.404 ± 0.025
same,Plasma protein extravasation as EvansBlue extinction at 600 nm,[1]; dose 10 μg/kg i.v.,0.144 ± 0.035
same,Plasma protein extravasation as EvansBlue extinction at 600 nm,[1]; dose 100 μg/kg i.v.,0.230 ± 0.018
Clc1cccc(N2CCNCC2)c1 [mCPP],"EvansBlue extinction, positive control (mCPP agonist)","[1]; mCPP 1 μg/kg alone, no test compound, negative control 0,130±0,024","0,300±0,038"
"CN1CCC(=C2c3ccccc3Sc3ccccc32)CC1 [Pimethixene, 9-(N-methyl-piperidyliden-4)-thioxanthene]",Selectivity of affinity for 5-HT2B receptor versus 5HT2C receptor,[2],selective affinity; also recorded: much higher affinity
same,Affinity to the human H1 receptor (in words),[3],high affinity
same,Affinity for the human H2 receptor (in words),[4],no affinity
same,pKi values H2,[4],low activity
same,Affinity for the human H3 receptor (in words),[5],no affinity
same,pKi values H3,[5],low activity
same,Affinity for the human H4 receptor (in words),[6],no affinity
same,pKi values H4,[6],low activity
same,Plasma protein extravasation as EvansBlue extinction at 600 nm,[1]; dose 0.001 μg/kg i.v.,0.269 ± 0.022
same,Plasma protein extravasation as EvansBlue extinction at 600 nm,[1]; dose 0.01 μg/kg i.v.,0.157 ± 0.040
same,Plasma protein extravasation as EvansBlue extinction at 600 nm,[1]; dose 0.1 μg/kg i.v.,0.126 ± 0.028
